Data as given in paper PMC3045100, “Cell-Penetrating Penta-Peptides (CPP5s): Measurement of Cell Entry and Protein-Transduction Activity” (Pharmaceuticals, 2010).
Residues, ends and D or L forms follow the SMILES beside them. *: point of attachment. 5FAM = O=C1OC2(c3ccc(O)cc3Oc3cc(O)ccc32)c2ccc(C(=O)*)cc21

System: HeLa cells
Assay: Effect of pinocytosis and endocytosis inhibitors on cell entry of Fam- or Tamra-labeled peptides
Type: cell-based
Conditions: serum-free DMEM, cytochalasin D 10 µM 30 min pre-treatment, then Tamra-labeled peptide 1 h, VPTLK 30 μM, R8 10 μM, FACS, mean of three experiments and standard error
Protocol: HeLa cells were incubated with each inhibitor in serum-free DMEM for 30 min, followed by incubation for 1 h with Fam-labeled CPP5 peptides (30 μM). Then, the cells were extensively washed with Hanks’ Buffered Salt Solution (HBSS) and complete DMEM, prior to the detection of fluorescence by microscopy and FACS. None of amiloride, chlorpromazine, cytochalasin D, Filipin III, nocodazole and methyl-beta-cyclodextrin blocked the entry of Fam-labeled VPTLK and KLPVM into HeLa cells. […] As a control experiment to validate the effectiveness of these inhibitors, FITC-transferrin (for chlorpromazine) and rhodamine-labeled EGF (for cytochalasin D and amiloride) were used. […] To compare the cell-penetrating mechanism between CPP5s and arginine-rich CPPs, the uptake of TAT and R8 was also examined in the presence of these inhibitors.
(§1) Figure 2 Mechanism of cell entry of CPP5s. a and b. […] Cells were incubated with peptides for 1 h and the cellular fluorescence intensity was measured by fluorescence microscopy equipped with image analysis software (for Fam-labeled peptides) or FACS (for Tamra-labeled peptides) as described in Experimental Procedures. […] The results are shown as percentages of the fluorescence intensity of inhibitor-treated cells (the intensity of non-treated cells is designated as 100%). […]

| Compound | Relative Fluorescence Intensity (No Inhibitor=100%), Cytochalasin D, Tamra-labeled peptides |
| --- | --- |
| Tamra-VPTLK [Tamra-labeled VPTLK] | 57±4% |

System: DAMI cells
Assay: Cell-penetration activity of Fam-labeled CPP5s, cellular fluorescence by FACS and/or microscopy
Type: cell-based, human
Set-up: key to Cell Penetration, cell entry confirmed by microscopy only: Cell entry of some peptides was confirmed by microscopy only, and these peptides are indicated with a ‘+’ without a percentage value
Conditions: peptides Fam-labeled on the N-terminus, 200 μM, 3 h, 37 °C, fluorescence intensity of cells by FACS, mean of triplicate samples
Protocol: Figure 1 Cell-penetration activity of CPP5s. a. List of cell-penetrating penta-peptides (CPP5s). […] Peptide sequences are color-coded to show the constant amphipathic amino acid arrangement in each CPP5. Cell-penetration activity was determined by fluorescence intensity of cells (DAMI cells: a human megakaryocytic cancer cell line) incubated with fluorescein (Fam)-labeled peptides (200 μM) for 3 h at 37 °C as described in Experimental Procedures. Fam was labeled on the N-terminus of all peptides examined. Cells were analyzed by FACS and/or microscopy. The activity of each peptide is shown as a percentage of the activity of KLPVM. Each value represents the mean of triplicate samples. Cell entry of some peptides was confirmed by microscopy only, and these peptides are indicated with a ‘+’ without a percentage value. For cytoprotective activity (right column), the information is based on previous studies and the activity was determined by the protection of cells from Bax overexpression and other apoptotic stimuli such as etoposide treatment. b to e. Cell entry of Fam-labeled VPTLK, KLPVM, TAT, and poly-arginine (R8). HeLa cells were incubated with Fam-labeled VPTLK, KLPVM (200 μM), Fam-TAT (10 μM), and Fam-R8 (10 μM) for 1 h at 37 °C. Images are at 20× magnification. f. Comparison of the cytotoxicity of CPP5 and TAT. Primary cultured mouse embryonic fibroblast (MEF) cells were treated with various concentrations of peptides for 24 h as indicated. Then, apoptosis was analyzed as described in Experimental Procedures. Each bar represents the mean of triplicate samples and standard error. TEXT PRINTED IN THE PICTURE: (a) VPMLK: Cell Penetration (%): 97 ± 4.3; Cytoprotection: + | (a) VPTLK: Cell Penetration (%): 61 ± 1.7; Cytoprotection: + | (a) VPALR: Cell Penetration (%): 79 ± 1.5; Cytoprotection: + | (a) VSALK: Cell Penetration (%): 90 ± 3; Cytoprotection: N.D. | (a) PMLKE: Cell Penetration (%): 65 ± 3.7; Cytoprotection: + | (a) VPALK: Cell Penetration (%): 71 ± 2.2; Cytoprotection: + | (a) VSLKK: Cell Penetration (%): +; Cytoprotection: - | (a) VSGKK: Cell Penetration (%): +; Cytoprotection: - | (a) KLPVM: Cell Penetration (%): 100 ± 2.3; Cytoprotection: - | (a) IPMIK: Cell Penetration (%): 47 ± 1.4; Cytoprotection: - | (a) KLGVM: Cell Penetration (%): +; Cytoprotection: - | (a) KLPVT: Cell Penetration (%): +; Cytoprotection: - | (a) VPMIK: Cell Penetration (%): +; Cytoprotection: N.D. | (a) IPALK: Cell Penetration (%): +; Cytoprotection: N.D. | (a) IPMLK: Cell Penetration (%): +; Cytoprotection: N.D. | (a) VPTLQ: Cell Penetration (%): 70 ± 4; Cytoprotection: - | (a) QLPVM: Cell Penetration (%): +; Cytoprotection: - | (a) ELPVM: Cell Penetration (%): +; Cytoprotection: - | (a) VPTLE: Cell Penetration (%): 80 ± 1.9; Cytoprotection: N.D.
CPP5s that were designed based on the Bax-binding domain of Ku70 of several species are named Bax-Inhibiting Peptides (BIPs); they are VPMLK, PMLKE, VPTLK, VPALR, and VPALK. VPMLK and PMLKE were designed from human Ku70, and the same sequence exists in the Ku70 homologues of dog and monkey. VPTLK and VPALR are based on mouse and rat Ku70, respectively. VPALK was designed from cattle Ku70, and the same sequence exists in Ku70 of the African clawed frog. Cytoprotective activities of these BIPs have been previously reported, both in cell culture and animal models. […] The observed variation in cell-entering activity of Fam-labeled-CPP5s is shown in Figure 1a as a percentage of the activity of KLPVM. In all cases, Fam was attached to the N-terminal amino acid. For some CPP5s, cell-penetration activity was confirmed by detection of an intracellular fluorescent signal by microscopy. These latter results are indicated with ‘+’ symbols, and a quantitative comparison with the activity of KLPVM was not performed. […]

| Cell Penetration (%), percentage of the activity of KLPVM | Compound |
| --- | --- |
| 97 ± 4.3% | VPMLK |
| 65 ± 3.7% | PMLKE |
| 71 ± 2.2% | VPALK |
| 100 ± 2.3% | KLPVM |
| 80 ± 1.9% | VPTLE [cell-penetrating penta-peptide (CPP5)] |

More lines, now with the values behind:

| Compound | Cell Penetration (%), percentage of the activity of KLPVM |
| --- | --- |
| VPTLQ [cell-penetrating penta-peptide (CPP5)] | 70 ± 4% |
| VSALK [cell-penetrating penta-peptide (CPP5)] | 90 ± 3% |
| IPMIK [cell-penetrating penta-peptide (CPP5)] | 47 ± 1.4% |
| VPALR | 79 ± 1.5% |

Same assay, conditions: peptides Fam-labeled on the N-terminus, 200 μM, 3 h, 37 °C, intracellular fluorescent signal by microscopy, no comparison with KLPVM

| Cell Penetration, cell entry confirmed by microscopy only | Compound |
| --- | --- |
| + | VSLKK [cell-penetrating penta-peptide (CPP5)] |
| + | VSGKK [cell-penetrating penta-peptide (CPP5)] |
| + | VPMIK [cell-penetrating penta-peptide (CPP5)] |
| + | IPALK [cell-penetrating penta-peptide (CPP5)] |
| + | QLPVM [cell-penetrating penta-peptide (CPP5)] |

More lines, now with the values behind:

| Compound | Cell Penetration, cell entry confirmed by microscopy only |
| --- | --- |
| KLPVT [cell-penetrating penta-peptide (CPP5)] | + |
| IPMLK [cell-penetrating penta-peptide (CPP5)] | + |
| KLGVM [cell-penetrating penta-peptide (CPP5)] | + |
| ELPVM [cell-penetrating penta-peptide (CPP5)] | + |

System: lysosomes of HeLa cells and DAMI cells
Assay: Co-localization of Fam-VPTLK with lysosomes (LysoTracker red)
Type: cell-based
Conditions: Fam-VPTLK 50 μM and LysoTracker 100 nM, 1 h, 37 °C, microscopy
Excerpt: Lysosomes are known to contain molecules which have entered the cell through pinocytosis. To determine whether CPP5s use pinocytotic pathways for their cell entry, the localizations of Fam-labeled CPP5s and lysosomes (labeled by LysoTracker® Red) were compared. […] In contrast, FITC-labeled transferrin and LysoTracker-Red co-localized extensively, which is consistent with the understanding that transferrin enters cells through receptor-mediated endocytosis (Figure 2c).
as §1, with “b. […] Microscopic analysis of the co-localization of Fam-VPTLK with lysosome-staining dye (LysoTracker™ red DND-99, L7528 Invitrogen). Hela cells (a) and DAMI cells (b) were incubated with Fam-VPTLK (50 μM) and LysoTracker (100 nM) for 1 h at 37 °C. c. FITC-labeled Transferin (FITC-Transferin) co-localized with lysosome. HeLa cells were incubaled with FITC-transferin (100 nM) and LysoTracker (100 nM) for 1 h at 37 °C. d.” for “b.”

| Co-localization with lysosomes | Compound |
| --- | --- |
| partially co-localizes with lysosomes | CC(C)C[C@H](NC(=O)[C@@H](NC(=O)[C@@H]1CCCN1C(=O)[C@@H](NC(=O)c1ccc2c(c1)C(=O)OC21c2ccc(O)cc2Oc2cc(O)ccc21)C(C)C)[C@@H](C)O)C(=O)N[C@@H](CCCCN)C(=O)O [Fam-VPTLK] (5FAM-VPTLK-OH) |

System: Primary cultured mouse embryonic fibroblast (MEF) cells
Assay: Cytotoxicity (apoptosis, Hoechst nuclear staining) of CPP5 and TAT
Type: cell-based
Conditions: not given
Protocol: List of cell-penetrating penta-peptides (CPP5s). […] Peptide sequences are color-coded to show the constant amphipathic amino acid arrangement in each CPP5. […] Fam was labeled on the N-terminus of all peptides examined. Cells were analyzed by FACS and/or microscopy. The activity of each peptide is shown as a percentage of the activity of KLPVM. Each value represents the mean of triplicate samples. Cell entry of some peptides was confirmed by microscopy only, and these peptides are indicated with a '+' without a percentage value. For cytoprotective activity (right column), the information is based on previous studies and the activity was determined by the protection of cells from Bax overexpression and other apoptotic stimuli such as etoposide treatment. b to e. Cell entry of Fam-labeled […], and poly-arginine (R8). […] Comparison of the cytotoxicity of CPP5 and TAT. Primary cultured mouse embryonic fibroblast (MEF) cells were treated with various concentrations of peptides for 24 h as indicated. Then, apoptosis was analyzed as described in Experimental Procedures. Each bar represents the mean of triplicate samples and standard error.

| Compound | Cytotoxic effect at 1.6 mM in the cell culture medium |
| --- | --- |
| KLPVM | did not show significant cytotoxic effects |

System: HeLa cells
Assay: FACS analysis of cell penetration of Fam-VPTLK versus medium concentration
Type: cell-based
Conditions: 3 h, up to 1.6 mM in medium, triplicate samples
Protocol: For examination of the cell-penetrating activity of 5,6-carboxyfluorescein (Fam)-labeled CPP5 peptides (Fam-VPMLK, Fam-VPTLK), DAMI cells and HeLa cells (5.0×10^4 cells/mL) were incubated with different concentrations of Fam-labeled peptides for different time periods. Excess peptides were removed by extensive washing with Hanks’ buffered saline solution (HBSS) as previously reported and cellular entry of Fam-labeled peptides was analyzed using a fluorescence microscope (Nikon; TE200), a confocal scanning laser microscope (Leica; TCS SP2), and a FACS instrument (XL Aria), or a Coulter EPICS® XL-MCR.

| Compound | Cell entry of Fam-VPTLK as a function of medium concentration |
| --- | --- |
| CC(C)C[C@H](NC(=O)[C@@H](NC(=O)[C@@H]1CCCN1C(=O)[C@@H](NC(=O)c1ccc2c(c1)C(=O)OC21c2ccc(O)cc2Oc2cc(O)ccc21)C(C)C)[C@@H](C)O)C(=O)N[C@@H](CCCCN)C(=O)O [Fam-VPTLK] (5FAM-VPTLK-OH) | linear increase up to the maximum concentration examined |

System: Jurkat cells
Assay: Cell entry in cells lacking caveolin-mediated endocytosis
Type: cell-based
Conditions: cells reported to lack caveolin-mediated endocytotic activity; data not shown
Excerpt: Chinese hamster ovary (CHO) A745 cells lack proteoglycans in the plasma membrane, and this cell line has been used to determine whether proteoglycans are required for CPP entry. […] (Figure 3c and d). The cell-penetrating activity of CPP5s was also examined in Jurkat cells that are reported to lack caveolin-mediated endocytotic activity.

| Entry into Jurkat cells | Compound |
| --- | --- |
| able to enter Jurkat cells | CC(C)C[C@H](NC(=O)[C@@H](NC(=O)[C@@H]1CCCN1C(=O)[C@@H](NC(=O)c1ccc2c(c1)C(=O)OC21c2ccc(O)cc2Oc2cc(O)ccc21)C(C)C)[C@@H](C)O)C(=O)N[C@@H](CCCCN)C(=O)O [Fam-VPTLK] (5FAM-VPTLK-OH) |
| able to enter Jurkat cells | CSCC[C@H](NC(=O)[C@@H](NC(=O)[C@@H]1CCCN1C(=O)[C@H](CC(C)C)NC(=O)[C@H](CCCCN)NC(=O)c1ccc2c(c1)C(=O)OC21c2ccc(O)cc2Oc2cc(O)ccc21)C(C)C)C(=O)O [Fam-KLPVM] (5FAM-KLPVM-OH) |
